Measurements from US11339153B2, “Compounds useful in modulating the farnesoid X receptor and methods of making and using the same” (Inorbit Therapeutics AB, priority 2018, dated 2022).

Columns and labels:
[1] = target: T1, Human FXR receptor (NR1H4) (Homo sapiens, UniProt Q96RI1); assay: Human Farnesoid X Receptor (NR1H4, FXR) Reporter Assay (Indigo Bioscience kit, luciferase); type: cell-based; conditions: for EC50: Human FXR (NR1H4) reporter assay, 22-24 h incubation; for Efficacy (%): normalized to GW4064 set as 100%
T1 sequence (Q96RI1 1-486): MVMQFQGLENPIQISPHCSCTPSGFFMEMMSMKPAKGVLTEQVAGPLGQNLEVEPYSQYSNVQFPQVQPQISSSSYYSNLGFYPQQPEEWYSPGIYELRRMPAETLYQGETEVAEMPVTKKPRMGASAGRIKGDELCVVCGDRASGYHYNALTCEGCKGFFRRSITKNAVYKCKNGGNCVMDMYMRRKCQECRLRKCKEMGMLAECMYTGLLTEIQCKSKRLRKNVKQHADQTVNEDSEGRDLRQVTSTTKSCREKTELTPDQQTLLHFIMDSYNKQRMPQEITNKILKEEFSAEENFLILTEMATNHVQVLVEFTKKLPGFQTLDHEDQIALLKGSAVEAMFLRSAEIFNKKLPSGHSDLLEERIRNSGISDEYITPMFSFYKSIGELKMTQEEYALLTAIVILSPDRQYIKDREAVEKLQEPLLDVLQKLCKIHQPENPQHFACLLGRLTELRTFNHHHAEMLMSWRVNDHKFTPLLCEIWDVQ
Description: Human Farnesoid X Receptor (NR1H4, FXR) Reporter Assay
Determination of a ligand mediated Ga14 promoter driven transactivation to quantify ligand binding mediated activation of FXR. A FXR Reporter Assay kit was purchased from Indigo Bioscience (#IB00601-32) to determine the potency and efficacy of compounds that can induce FXR activation. The nuclear receptor assay system utilizes non-human mammalian cells engineered to provide constitutive high level expression of Human FXR receptor (NR1H4), a ligand-dependent transcription factor. The reporter cells include luciferase reporter gene functionality linked to an FXR-response promoter. Quantifying changes in luciferase expression in the treated reporter cells provides a sensitive surrogate measure of the changes in FXR activity.
The reporter cells incorporate the cDNA encoding beetle luciferase, a protein that catalyses the mono-oxidation of D-luciferin in a Mg^2+ dependent reaction that consumes O2 and ATP as co-substrates, yielding the products Oxylucifern, AMP, PPi, CO2 and photon (light) emission. Luminescence intensity of the reaction is quantified using a luminometer, and is reported in terms of Relative Light Units (RLU's).
The assay was performed according to the manufacturer's instructions. In brief, the test compounds were weighed and dissolved in phosphate buffer solution as a 10 mM stock and diluted to the appropriate concentration using Compound Screening Medium (CSM). The frozen reporter cells were thawed and suspended in Cell Recovery Medium at 37° C. The compounds were then immediately added to the cell plate and the plate was placed into a 37° C., humidified CO2 incubator for 22-24 h. After incubation, the media was carefully removed, Luciferase detection solution was added and the plate read in a Luminometer. The data was calculated as per kit instructions, with increases in luminescence being directly proportional to increases in compound agonist activity.

[2] = Metabolism in human microsomes; type: in vitro ADME; conditions: 37° C.; for % remaining @ 45 mins of incubation with UDPGA: co-factor UDPGA only; for % remaining @ 45 mins of incubation with UDPGA and NADPH: co-factors UDPGA and NADPH
Description: Metabolism in Human Microsomes
Microsomal mixes (247.5 μL) of human microsomes (1250 μL, 4 mg/ml), potassium phosphate buffer (1250 μL), alamethecin (12.5 μL, 5 mg/ml) and cofactors Nicotinamide Adenine Dinucleotide Phosphate NADPH (1250 μL, 4 mM)/uridine 5′-diphospho-glucuronic acid UDPGA (1250 μL, 4 mM) or UDPGA only were loaded onto a shaker for 10 minutes. The test compound (2.5 μL, 100 μM) was then separately added to both microsomal mixes (i.e., one mix with NADPH and one mix without NADPH), incubated at 37° C. and sampled at predetermined time points. Analysis was performed using a AB SCIEX QTRAP 4500 LC-MS/MS, a Kinetex C18, 50*4.6 mm, 5 μm column and eluting with 10 mM Ammonium Acetate/Methanol.
Table 2 summarizes the % of compound remaining after 45 minutes of incubation with human microsomes either in the presence of co-factors UDPGA and NADPH or UDPGA only.

[3] = Metabolic identification in hepatocytes (mouse); type: in vitro ADME
Description: (§1) Metabolic Identification in Hepatocytes.
(§2) A 10 mM stock of test compound from Example 4 (sodium 2-(3-((5-cyclopropyl-3-(2-(trifluoromethoxy)phenyl)isoxazol-4-yl)methoxy)-8-azabicyclo[3.2.1]octan-8-yl)-4-fluorobenzo[d]thiazole-6-sulfinate) was prepared in DMSO. 20 μM of final working stock was then prepared by diluting 4 μL of 10 mM stock in 1996 μL of Krebs-Hensleit buffer. 200 μL of hepatocyte cell suspension (2×10^6 cells/mL) was added to TPP 48 well plate and preincubated for 30 min@37° C. in incubator. 200 μL of 20 μM working stock of test compound was added to the cell suspension and incubated in an incubator on vibramax at a shaking speed of 500 rpm. For the 0 min sample, 25 μL of hepatocyte suspension was precipitated with 200 μL of acetonitrile and 25 μL of 20 μM test compound was added. The reaction was stopped at 15, 30, 60, 90, 120 min by precipitating 50 μL of incubation mixture with 200 μL of acetonitrile. The samples were vortexed for 5 min at 1200 rpm and centrifuged at 4000 rpm for 10 min. The supernatant was separated, diluted 2 fold with water and analysed using a HPLC (Shimadzu SIL HTS) and mass spectrometer (5500 Qtrap). Acetonitrile and 0.1% formic acid in Milli-q-water were used as the mobile phase, using a column of either Waters Xbridge C18, 250×3.0 mm, 5.0μ particle size or Phenomnex kinetex 5μ EVO C18 100 A, 50×4.6 mm 5.0μ particle size. […]

[4] = Metabolic identification in hepatocytes (human); type: in vitro ADME
Description: as §1
A 10 mM stock of test compound from Example 4 (sodium 2-(3-((5-cyclopropyl-3-(2-(trifluoromethoxy)phenyl)isoxazol-4-yl)methoxy)-8-azabicyclo[3.2.1]octan-8-yl)-4-fluorobenzo[d]thiazole-6-sulfinate) was prepared in DMSO. 20 μM of final working stock was then prepared by diluting 4 μL of 10 mM stock in 1996 μL of Krebs-Hensleit buffer. 200 μL of hepatocyte cell suspension (2×10^6 cells/mL) was added to TPP 48 well plate and preincubated for 30 min@37° C. in incubator. 200 μL of 20 μM working stock of test compound was added to the cell suspension and incubated in an incubator on vibramax at a shaking speed of 500 rpm. For the 0 min sample, 25 μL of hepatocyte suspension was precipitated with 200 μL of acetonitrile and 25 μL of 20 μM test compound was added. The reaction was stopped at 15, 30, 60, 90, 120 min by precipitating 50 μL of incubation mixture with 200 μL of acetonitrile. The samples were vortexed for 5 min at 1200 rpm and centrifuged at 4000 rpm for 10 min. The supernatant was separated, diluted 2 fold with water and analysed using a HPLC (Shimadzu SIL HTS) and mass spectrometer (5500 Qtrap). Acetonitrile and 0.1% formic acid in Milli-q-water were used as the mobile phase, using a column of either Waters Xbridge C18, 250×3.0 mm, 5.0μ particle size or Phenomnex kinetex 5μ EVO C18 100 A, 50×4.6 mm 5.0μ particle size.
Table 3 summarizes the major metabolites observed when the compound of Example 4 of the invention was incubated in human, dog or mouse hepatocytes.

[5] = Metabolic identification in hepatocytes (dog); type: in vitro ADME
Description: as §1, §2

% remaining @ 45 mins of incubation with UDPGA [2] [%] | % remaining @ 45 mins of incubation with UDPGA and NADPH [2] [%] | SMILES | EC50 [1] [µM] | Efficacy (%) [1] [%] | Acyl-Glucuronide [3] | Observed Major Metabolites [3] | Acyl-Glucuronide [4] | Observed Major Metabolites [4] | major metabolites formed (MS/MS spectra, FIG. 1) ([4]; incubation for 120 mins) | Acyl-Glucuronide [5] | Observed Major Metabolites [5]
92 | 26 | O=S([O-])c1cccc(N2CC(O)(c3ccc(OCc4c(-c5c(Cl)cccc5Cl)noc4C4CC4)cc3Cl)C2)c1.[Na+] [Example 6, Sodium 3-(3-(2-chloro-4-((5-cyclopropyl-3-(2,6-dichlorophenyl)isoxazol-4-yl)methoxy)phenyl)-3-hydroxyazetidin-1-yl)benzenesulfinate] | > 5 | 96 | – | – | – | – | – | – | –
95 | 38 | O=S(O)c1ccc(C2CC(O)(c3ccc(OCc4c(-c5c(Cl)cccc5Cl)noc4C4CC4)cc3Cl)C2)cc1 (stereo not drawn) [Example 7, Sodium 4-(3-(2-chloro-4-((5-cyclopropyl-3-(2,6-dichlorophenyl)isoxazol-4-yl)methoxy)phenyl)-3-hydroxycyclobutyl)benzenesulfinic acid] | > 5 | 89 | – | – | – | – | – | – | –
– | – | O=S(O)c1ccc(C2CC2c2ccc(OCc3c(-c4c(Cl)cccc4Cl)noc3C3CC3)cc2Cl)cc1 (stereo not drawn) [Example 8, Sodium 4-(2-(2-chloro-4-((5-cyclopropyl-3-(2,6-dichlorophenyl)isoxazol-4-yl)methoxy)phenyl)cyclopropyl)benzenesulfinate] | 0.5 to 5 | 127 | – | – | – | – | – | – | –

SMILES | % remaining @ 45 mins of incubation with UDPGA [2] [%] | % remaining @ 45 mins of incubation with UDPGA and NADPH [2] [%] | EC50 [1] [µM] | Efficacy (%) [1] [%] | Acyl-Glucuronide [3] | Observed Major Metabolites [3] | Acyl-Glucuronide [4] | Observed Major Metabolites [4] | major metabolites formed (MS/MS spectra, FIG. 1) ([4]; incubation for 120 mins) | Acyl-Glucuronide [5] | Observed Major Metabolites [5]
O=S([O-])c1cc(F)c2nc(N3[C@@H]4CC[C@H]3C[C@@H](OCc3c(-c5ccccc5OC(F)(F)F)noc3C3CC3)C4)sc2c1.[Na+] [Example 4, Sodium 2-(3-((5-cyclopropyl-3-(2-(trifluoromethoxy)phenyl)isoxazol-4-yl)methoxy)-8-azabicyclo[3.2.1]octan-8-yl)-4-fluorobenzo[d]thiazole-6-sulfinate] | 94 | 52 | < 0.5 | 94 | No | Hydroxy, Di-hydroxy and Alkenyl-hydroxy | No | Hydroxy, Alkenyl and Alkenyl-hydroxy | consistent with oxidative metabolism to give the corresponding hydroxy compound | No | Alkenyl-hydroxy
